From ChEMBL document CHEMBL4392834, “Polymorphs, co-crystal structure and pharmacodynamics study of MBRI-001, a deuterium-substituted plinabulin derivative as a tubulin polymerization inhibitor” (Bioorg Med Chem, 2019)

Assays:
[1] = Toxicity in human A549 cells xenografted Balb/c nude mouse assessed as body weight change weight at 10 mg/kg, iv dosed on day 0, 7 and 14 (reference value: 6.96%); assay type: organism-based; conditions: in vivo
A549 [2] = test: Antitumor activity against human A549 cells xenografted in Balb/c nude mouse assessed as tumor volume at 10 mg/kg, iv dosed as QW x 3 weeks regime relative to untreated control; assay type: functional
A549 [3] = test: Antitumor activity against human A549 cells xenografted in Balb/c nude mouse assessed as tumor weight at 10 mg/kg, iv dosed as QW x 3 weeks regime (reference value: 0.596 +/- 0.042 g); assay type: functional
NCI-H1975 [4] = test: Antiproliferative activity in human NCI-H1975 cells assessed as inhibition of cell proliferation at 12.5 nM incubated for 72 hrs by MTT assay; assay type: functional; conditions: NCI-H1975, 72 h
[5] = Toxicity in Balb/c nude mouse dosed intravenously every 3 days for consecutive 21 days; assay type: organism-based; conditions: in vivo, iv
A549 [6] = test: Antiproliferative activity in human A549 cells assessed as inhibition of cell proliferation at 25 nM incubated for 72 hrs by MTT assay; assay type: functional; conditions: A549, 72 h
A549 [7] = test: Antitumor activity against human A549 cells xenografted in Balb/c nude mouse assessed as tumor weight at 3 mg/kg, iv dosed as Q3D x 3 weeks regime (reference value: 0.596 +/- 0.042 g); assay type: functional
NCI-H1975 [8] = test: Antiproliferative activity in human NCI-H1975 cells assessed as inhibition of cell proliferation at 3.125 nM incubated for 72 hrs by MTT assay; assay type: functional; conditions: NCI-H1975, 72 h
NCI-H1975 [9] = test: Antiproliferative activity in human NCI-H1975 cells assessed as inhibition of cell proliferation at 25 nM incubated for 72 hrs by MTT assay; assay type: functional; conditions: NCI-H1975, 72 h
NCI-H1975 [10] = test: Antiproliferative activity in human NCI-H1975 cells assessed as inhibition of cell proliferation at 1.5625 nM incubated for 72 hrs by MTT assay; assay type: functional; conditions: NCI-H1975, 72 h
A549 [11] = test: Antitumor activity against human A549 cells xenografted in Balb/c nude mouse assessed as tumor volume at 6 mg/kg, iv dosed as Q3D x 3 weeks regime relative to untreated control; assay type: functional
NCI-H1975 [12] = test: Cytotoxicity in human NCI-H1975 cells assessed as reduction in cell viability incubated for 72 hrs by MTT assay; assay type: functional, cell-based; conditions: NCI-H1975, 72 h
NCI-H1975 [13] = test: Antiproliferative activity in human NCI-H1975 cells assessed as inhibition of cell proliferation at 6.25 nM incubated for 72 hrs by MTT assay; assay type: functional; conditions: NCI-H1975, 72 h
A549 [14] = test: Antiproliferative activity in human A549 cells assessed as inhibition of cell proliferation at 3.125 nM incubated for 72 hrs by MTT assay; assay type: functional; conditions: A549, 72 h
A549 [15] = test: Antitumor activity against human A549 cells xenografted in Balb/c nude mouse assessed as tumor volume at 3 mg/kg, iv dosed as Q3D x 3 weeks regime relative to untreated control; assay type: functional
A549 [16] = test: Antiproliferative activity in human A549 cells assessed as inhibition of cell proliferation at 12.5 nM incubated for 72 hrs by MTT assay; assay type: functional; conditions: A549, 72 h
A549 [17] = test: Antiproliferative activity in human A549 cells assessed as inhibition of cell proliferation at 1.5625 nM incubated for 72 hrs by MTT assay; assay type: functional; conditions: A549, 72 h
NCI-H1975 [18] = test: Antiproliferative activity in human NCI-H1975 cells assessed as inhibition of cell proliferation at 50 nM incubated for 72 hrs by MTT assay; assay type: functional; conditions: NCI-H1975, 72 h
A549 [19] = test: Antitumor activity against human A549 cells xenografted in Balb/c nude mouse assessed as tumor weight at 12 mg/kg, iv dosed as Q3D x 3 weeks regime (reference value: 0.596 +/- 0.042 g); assay type: functional
[20] = Toxicity in human A549 cells xenografted Balb/c nude mouse assessed as body weight change weight at 12 mg/kg, iv dosed on day 0, 3, 6, 9, 12, 15 and 18 regime (reference value: 6.96%); assay type: organism-based; conditions: in vivo
A549 [21] = test: Antiproliferative activity in human A549 cells assessed as inhibition of cell proliferation at 50 nM incubated for 72 hrs by MTT assay; assay type: functional; conditions: A549, 72 h
A549 [22] = test: Antiproliferative activity in human A549 cells assessed as inhibition of cell proliferation at 6.25 nM incubated for 72 hrs by MTT assay; assay type: functional; conditions: A549, 72 h
A549 [23] = test: Antitumor activity against human A549 cells xenografted in Balb/c nude mouse assessed as tumor weight at 6 mg/kg, iv dosed as Q3D x 3 weeks regime (reference value: 0.596 +/- 0.042 g); assay type: functional
A549 [24] = test: Antitumor activity against human A549 cells xenografted in Balb/c nude mouse assessed as tumor volume at 12 mg/kg, iv dosed as Q3D x 3 weeks regime relative to untreated control; assay type: functional
[25] = Toxicity in human A549 cells xenografted Balb/c nude mouse assessed as body weight change weight at 3 mg/kg, iv dosed on day 0, 3, 6, 9, 12, 15 and 18 regime (reference value: 6.96%); assay type: organism-based; conditions: in vivo
A549 [26] = test: Cytotoxicity in human A549 cells assessed as reduction in cell viability incubated for 72 hrs by MTT assay; assay type: functional, cell-based; conditions: A549, 72 h
[27] = Toxicity in human A549 cells xenografted Balb/c nude mouse assessed as body weight change weight at 6 mg/kg, iv dosed on day 0, 3, 6, 9, 12, 15 and 18 regime (reference value: 6.96%); assay type: organism-based; conditions: in vivo
Tubulin (Homo sapiens) = Tubulin (Homo sapiens) (UniProt P68371+Q9H4B7+P0DPH7+P68366+Q13509+Q71U36+P04350+Q3ZCM7+P07437+P68363+Q9BQE3+Q6PEY2+Q13885+Q9BVA1+Q9BUF5); test: Inhibition of tubulin (unknown origin) polymerization at 5 uM; assay type: protein-complex assay

Structure (SMILES)	inhibition at 0.0125 µM (NCI-H1975 [4])	inhibition at 0.025 µM (A549 [6])	inhibition at 0.003125 µM (NCI-H1975 [8])	inhibition at 0.025 µM (NCI-H1975 [9])	inhibition at 0.0015625 µM (NCI-H1975 [10])	T/C (A549 [11])	IC50 (NCI-H1975 [12])	inhibition at 0.00625 µM (NCI-H1975 [13])	inhibition at 0.003125 µM (A549 [14])	inhibition at 0.0125 µM (A549 [16])	inhibition at 0.0015625 µM (A549 [17])	inhibition at 0.05 µM (NCI-H1975 [18])	Activity (A549 [19])	Activity [20]	inhibition at 0.05 µM (A549 [21])	inhibition at 0.00625 µM (A549 [22])	Activity (A549 [23])	T/C (A549 [24])	IC50 (A549 [26])	Activity [27]	further results
CC(=O)O[C@@]12CO[C@@H]1C[C@H](O)[C@@]1(C)C(=O)[C@H](O)C3=C(C)[C@@H](OC(=O)[C@H](O)[C@@H](NC(=O)OC(C)(C)C)c4ccccc4)C[C@@](O)([C@@H](OC(=O)c4ccccc4)[C@H]21)C3(C)C [DOCETAXEL ANHYDROUS]																					Activity [1]: -0.66%; T/C (A549 [2]): 26.5%; Activity (A549 [3]): 0.13 g
[2H]/C(c1nc[nH]c1C(C)(C)C)=c1/[nH]c(=O)/c(=C/c2ccccc2)[nH]c1=O	70.7 to 81.7%	88 to 88.7%	3.64 to 12.3%	90.4 to 91.5%	2.75 to 10.3%	59.01%	9.3 nM	12.3 to 22.6%	54.8 to 61.6%	83.2 to 86.3%	0.92 to 9.22%	90.8 to 91.7%	0.308 g	2.36%	83.2 to 87.9%	82 to 86.7%	0.344 g	54.39%	2.5 nM	6.78%	LD50 at 21 days [5]: 18.9 mg/kg; Activity (A549 [7]): 0.442 g; T/C (A549 [15]): 70.88%; Activity [25]: 6.75%
CC(C)(C)c1[nH]cnc1/C=c1\[nH]c(=O)/c(=C/c2ccccc2)[nH]c1=O [PLINABULIN]	61.1 to 69.1%	88.4 to 89.5%	3.89 to 15.5%	86.3 to 90.8%	1.03 to 11.2%	61.48%	10.2 nM	13.3 to 25.7%	42.5 to 50.8%	85.1 to 88.9%	23.3 to 29.4%	88.7 to 91.3%	0.327 g	6.33%	86.6 to 89.2%	88 to 88.7%	0.349 g	56.7%	3.5 nM	5.66%	inhibition (Tubulin (Homo sapiens)): 27.9%; inhibition (Tubulin (Homo sapiens); tested as the 2H-labelled form): 30.1%
